Results on 65 molecules are retold here after PubChem BioAssay AID540252 (Sanford-Burnham Center for Chemical Genomics, 2011).

In general, IC50 refers to the concentration that inhibits the measured activity by half.

Calls of active or inactive are those of the source. No rule for the calls is given here. Bounds are passed on as bounds.

The target of this assay is glucose-6-phosphate dehydrogenase-6-phosphogluconolactonase (Plasmodium falciparum 3D7). Description: PfG6PD enzyme inhibitors, direct NADPH readout, dose response, orthogonal assay, biochemical, end-point NADPH detection (AID 540252). The settings on record: purified PfG6PD enzyme.
For `COc1cc(N=c2ssnc2Cl)cc(OC)c1`, the IC50 was 72.6 µM. For the molecule `CN1CCN(C(=S)C(=O)Nc2ccc(Br)cc2)CC1`, the IC50 is 67.9 µM. The same measure for `Cc1ccc(-c2c(C(=O)N/N=C/c3ccc(C)o3)nnn2-c2nonc2N)cc1`: > 80 µM (inactive). Turning to `COc1ccc(-n2c(=S)[nH]c3c(sc(=S)n3-c3ccccc3)c2=O)c(OC)c1`, the IC50 was 58 µM.

With `O=C(CNC(=O)c1cccs1)NCC(=O)OCC(=O)c1ccc([N+](=O)[O-])cc1`, the IC50 is 67.9 µM.

In the case of `O=S(=O)(Nc1ccccc1F)c1cccc(NC(=S)NCCN2CCOCC2)c1`, the IC50 was 71.2 µM. On to `C=CCN=c1scc(-c2ccco2)n1/N=C/c1ccc(O)c(O)c1O`, for which the IC50 is > 80 µM (inactive). On to `CCOc1cc(NCc2ccccc2)c2ncn(C(C)C)c2c1`, for which the IC50 was > 80 µM (inactive). Take `COCCNC(=S)Nc1ccc(N2CCOCC2)c(S(=O)(=O)Nc2ccc(Cl)cc2)c1`: the IC50 is > 80 µM (inactive). As to `COC(=O)CCC(=O)OC1(C)C(=O)C2=CN(C3CC3)C(c3ccc(OC)cc3)=CC2=C(Br)C1=O` (stereo not given), the IC50 was > 80 µM (inactive). The result for `O=C1C(Cl)=C(NCCc2ccccc2)C(=O)c2ccccc21` reads > 80 µM (inactive); that for `O=S(=O)(Nc1cccc2cccnc12)c1ccccc1`, > 80 µM (inactive). In the case of `C[C@H](NC(N)=O)C(=O)Nc1ccc(N2CCOCC2)c(S(=O)(=O)Nc2ccc(Cl)cc2)c1`, the IC50 is > 80 µM (inactive). Turning to `Cc1ccc(/C=C/C(=O)NCCc2cccc(Cl)c2)o1`, the IC50 was > 80 µM (inactive).

For `CCOc1ccc2ccccc2c1/C=N/NC(=O)c1ccncc1`, the IC50 is > 80 µM (inactive).

For `CCN1CCCC1CNC(=O)c1ccc2c(c1)NC(=O)/C(=C\c1ccc(C)cc1)S2` (stereo not given), the IC50 was > 80 µM (inactive). The result for `CN(C)c1ccc(C=c2c3ccccc3n3c2c2ccccc2[n+]3C)cc1` reads > 80 µM (inactive); that for `CCc1ccc(OCC(=O)N/N=C/c2cc([N+](=O)[O-])ccc2N2CCOCC2)cc1`, > 80 µM (inactive); that for `C=CCOc1ccc(CNc2ccc3[nH]c(=O)[nH]c3c2)cc1OC`, > 80 µM (inactive). For `Cc1ccc(NS(=O)(=O)c2ccccc2Cl)c2c1CC(C)(C)O2`, the IC50 is > 80 µM (inactive). `COc1ccc(C(=O)ON=C2C=C(C)C(=O)C(C)=C2)cc1`: the IC50 was > 80 µM (inactive).

In the case of `OCCN1CCN(C(=S)c2ccc(-c3ccccc3)cc2)CC1`, the IC50 was > 80 µM (inactive).

Regarding `CC1CCc2[nH]c3ccc(C(=O)N(C)CC(=O)Nc4ccccc4C(F)(F)F)cc3c2C1` (stereo not given), the IC50 was > 80 µM (inactive). In the case of `CC(C)c1nnc(NC(=O)c2cc3ccccc3o2)s1`, the IC50 was > 80 µM (inactive). For `CC(CNc1ccccc1O)C(=O)O` (stereo not given), the IC50 was > 80 µM (inactive). As to `CCOC(=O)c1ccc(/[N+]([O-])=C/c2ccccc2)cc1`, the IC50 was > 80 µM (inactive). As to `Oc1ccc(C2C[C@H]3CC[C@@H]2C3)cc1O` (stereo not given in full), the IC50 was 31.3 µM.

`O=C(Nc1nnc(S(=O)(=O)N2CCCC2)s1)c1cccc([N+](=O)[O-])c1`: the IC50 was > 80 µM (inactive). The same measure for `CCc1ccccc1N1CSC2=C(C#N)C(c3ccccc3F)CC(=O)N2C1` (stereo not given): > 80 µM (inactive).

Consider `Cc1cc(C)c(S(=O)(=O)/N=C2/C=C(SCC(=O)O)C(=O)c3ccccc32)cc1C`, for which the IC50 was > 80 µM (inactive). With `CC(NC(=O)c1sc2cc([N+](=O)[O-])ccc2c1Cl)C(C)(C)C` (stereo not given), the IC50 is > 80 µM (inactive). The same measure for `Cc1ccc(/C=C2\C(=O)NC(=S)N(c3ccccc3F)C2=O)s1`: > 80 µM (inactive); for `Cc1ccc(NC(=O)c2cc(N3C(=O)C=CC3=O)ccc2N2CCOCC2)cc1Cl`: > 80 µM (inactive); for `Cc1nc2ccc(Nc3nc4cc(S(=O)(=O)N5CCOCC5)ccc4o3)cc2s1`: > 80 µM (inactive). As to `ClC(Cl)(c1nnnn1-c1ccccc1)c1nnnn1-c1ccccc1`, the IC50 is 56.2 µM. The same measure for `Clc1ccc2nc(-c3ccc4c(c3)OCO4)cn2c1`: > 80 µM (inactive). Turning to `NC1CCc2cc(O)c(O)cc2C1` (stereo not given), the IC50 is 27.5 µM. The same measure for `Clc1ccc(N=c2ssnc2Cl)nc1`: > 80 µM (inactive). For `CCN1CCCC1CNC(=O)c1ccc2c(c1)NC(=O)/C(=C\c1ccccc1Cl)S2` (stereo not given), the IC50 was > 80 µM (inactive). Turning to `O=[N+]([O-])c1c(NCCO)cc(Sc2nc3ccccc3s2)c2nonc12`, the IC50 is > 80 µM (inactive). With `CCC(=O)OCOc1ccc(/C=C2/CCC(CN(C)C)C2=O)cc1` (stereo not given), the IC50 was > 80 µM (inactive). Turning to `Nc1c(C(=O)Nc2ccc(F)cc2)sc(=S)n1-c1ccccc1F`, the IC50 was > 80 µM (inactive). With `O=C(CN1C(=O)C2C3C=CC(C3)C2C1=O)OCC(=O)c1ccc([N+](=O)[O-])cc1` (stereo not given), the IC50 was 56.7 µM.

On to `NC(=O)N/N=C/c1ccc(-n2nncc2-c2ccc(Cl)cc2)cc1`, for which the IC50 was > 80 µM (inactive). In the case of `CC1=C(O)C(=O)C=C2C1=CC=C1C2(C)CCC2(C)C3CC(C)(C(=O)O)CCC3(C)CCC12C` (stereo not given), the IC50 was > 80 µM (inactive). As for `CCC1(CC)Cc2ccccc2C(N)=C1C#N`, the IC50 is > 80 µM (inactive).

As to `Cc1cc(N=NC(=O)c2ccccc2O)c2ccccc2c1O`, the IC50 was > 80 µM (inactive). The same measure for `O=C(Nc1ccc(N2CCOCC2)c(Cl)c1)c1ccc(Cl)cc1`: > 80 µM (inactive); for `N#Cc1c(C#N)c(SSc2c(C#N)c(C#N)c(N)n2-c2ccccc2)n(-c2ccccc2)c1N`: > 80 µM (inactive). In the case of `COc1cccc(C=Nc2cc(C(C)C)c(O)cc2C)c1O`, the IC50 was > 80 µM (inactive). For `CC1=C(C)CS(=O)N(S(=O)(=O)c2ccc(Cl)cc2)C1` (stereo not given), the IC50 is > 80 µM (inactive).

`O=C(Nc1ccc(N2CCCC2)cc1)c1cccc(-c2cc3ccccc3oc2=O)c1`: the IC50 is > 80 µM (inactive). As to `CCCCC1C(=O)N(c2ccccc2)N(c2ccc(O)cc2)C1=O` (stereo not given), the IC50 was > 80 µM (inactive).

As for `COc1c(O)c(O)c2oc(-c3ccccc3)cc(=O)c2c1OC`, the IC50 is > 80 µM (inactive). In the case of `Cc1[nH]c(=S)c(C#N)c(C)c1CCC#N`, the IC50 was > 80 µM (inactive).

In the case of `N#Cc1ccc2c(=O)n(-c3ccccc3)sc2c1`, the IC50 was > 80 µM (inactive). As for `COc1ccc(C(=O)Nc2nnc(S(=O)(=O)N3CCOCC3)s2)cc1`, the IC50 was > 80 µM (inactive).

As to `[O-]/[N+](=C\c1ccco1)c1ccc(Cl)cc1`, the IC50 was > 80 µM (inactive). The same measure for `CCN1CCN(c2nc(C)nc3c2sc(=S)n3C)CC1`: 43.7 µM; for `[O-][N+](=Cc1ccccc1)c1ccc(Cl)cc1`: > 80 µM (inactive). The result for `CCOC(=O)c1c(OCC)[nH]c2c1cc(O)c1ccccc12` reads > 80 µM (inactive); that for `CCNc1cc2c(cc1O)CCC1C2CCC2(C)C(O)CCC12` (stereo not given), > 80 µM (inactive); that for `O=C(NCCCN1CCOCC1)c1sc2cc([N+](=O)[O-])ccc2c1Cl`, 49.2 µM. Consider `Cc1ccc(N2CC(C(=O)OCC(=O)c3ccc([N+](=O)[O-])cc3)CC2=O)cc1` (stereo not given), for which the IC50 was 50.9 µM. Take `Cc1[nH]c2ccccc2c1/C=N/NC(=O)c1cccc(S(=O)(=O)Nc2ccccc2Cl)c1`: the IC50 was > 80 µM (inactive).
